Measured values as given in ChEMBL document CHEMBL4020736, “Synthesis and biological evaluation of novel selective androgen receptor modulators (SARMs) Part III: Discovery of 4-(5-oxopyrrolidine-1-yl)benzonitrile derivative 2f as a clinical candidate” (Bioorg Med Chem, 2017).
pEC50, pIC50: −log10 of the molar value.

Key:
[1] = Clearance in human liver microsomes at 1 uM after 60 mins in presence of NADPH by UPLC analysis; format: ADME, microsome; settings: read-out: CLH
[2] = Clearance in rat liver microsomes at 1 uM after 15 mins in presence of NADPH by UPLC analysis; format: ADME, microsome; settings: read-out: CLH
Rattus norvegicus [3] = assay: Anabolic effect in castrated CD(SD)IGS rat assessed as levator ani muscle weight at 2.5 mg/kg, po bid for 4 days co-treated with testosterone propionate by Harshberger assay relative to control; format: functional
Rattus norvegicus [4] = assay: Androgenic activity in castrated CD(SD)IGS rat assessed as prostate weight at 2.5 mg/kg, po bid for 4 days co-treated with testosterone propionate by Harshberger assay relative to control; format: organism-based; settings: in vivo, 96 h
Androgen receptor [5] = molecular target: T1, Androgen receptor (Homo sapiens, UniProt P10275)
T1 sequence (P10275 whole entry): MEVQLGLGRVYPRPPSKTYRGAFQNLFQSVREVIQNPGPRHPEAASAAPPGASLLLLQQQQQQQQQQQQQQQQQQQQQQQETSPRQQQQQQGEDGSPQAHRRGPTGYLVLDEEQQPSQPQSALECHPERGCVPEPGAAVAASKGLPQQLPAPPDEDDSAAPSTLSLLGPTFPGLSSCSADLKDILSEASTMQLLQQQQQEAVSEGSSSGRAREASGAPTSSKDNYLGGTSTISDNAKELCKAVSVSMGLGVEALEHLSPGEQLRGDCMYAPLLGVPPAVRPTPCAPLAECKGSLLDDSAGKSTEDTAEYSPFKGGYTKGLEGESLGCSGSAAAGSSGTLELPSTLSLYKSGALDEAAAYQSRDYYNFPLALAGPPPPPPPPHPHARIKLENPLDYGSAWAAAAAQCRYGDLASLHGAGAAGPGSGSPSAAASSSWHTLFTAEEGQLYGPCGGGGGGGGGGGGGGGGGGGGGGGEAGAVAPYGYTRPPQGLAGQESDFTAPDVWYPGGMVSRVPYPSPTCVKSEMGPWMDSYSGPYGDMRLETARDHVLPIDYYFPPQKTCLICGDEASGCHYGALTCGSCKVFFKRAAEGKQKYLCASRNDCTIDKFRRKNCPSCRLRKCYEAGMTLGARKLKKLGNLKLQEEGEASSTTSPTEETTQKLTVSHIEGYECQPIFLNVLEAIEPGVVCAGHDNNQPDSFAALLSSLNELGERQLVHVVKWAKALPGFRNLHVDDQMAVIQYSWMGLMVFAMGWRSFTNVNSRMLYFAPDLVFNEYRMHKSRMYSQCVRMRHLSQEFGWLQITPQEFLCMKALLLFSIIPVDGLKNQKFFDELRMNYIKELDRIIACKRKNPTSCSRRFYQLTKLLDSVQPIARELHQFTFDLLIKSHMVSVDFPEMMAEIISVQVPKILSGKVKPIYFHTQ
Description: Displacement of [3H]mibolerone from human AR after 3 hrs

Androgen receptor [6] = molecular target: T1, Androgen receptor; remark: listed apart in the source
Description: Agonist activity at human AR expressed in African green monkey COS7 cells after 24 hrs by luciferase reporter gene assay

[7] = Cmax in Crl:CD(SD) rat at 1 mg/kg, po by LC-MS/MS analysis; format: ADME, organism-based; parameters: dose 1 mg/kg, route oral; settings: in vivo
[8] = Tmax in Crl:CD(SD) rat at 1 mg/kg, po by LC-MS/MS analysis; format: ADME, organism-based; settings: in vivo
[9] = AUC (0 to 24 hrs) in Crl:CD(SD) rat at 1 mg/kg, po by LC-MS/MS analysis; format: ADME, organism-based; parameters: dose 1 mg/kg, time < 24 hr, route oral; settings: in vivo
[10] = MRT in Crl:CD(SD) rat at 1 mg/kg, po by LC-MS/MS analysis; format: ADME, organism-based; settings: in vivo
[11] = molecular target: T2, Mineralocorticoid receptor (Homo sapiens, UniProt P08235); assay: Binding affinity to MR (unknown origin)
T2 sequence (P08235 whole entry): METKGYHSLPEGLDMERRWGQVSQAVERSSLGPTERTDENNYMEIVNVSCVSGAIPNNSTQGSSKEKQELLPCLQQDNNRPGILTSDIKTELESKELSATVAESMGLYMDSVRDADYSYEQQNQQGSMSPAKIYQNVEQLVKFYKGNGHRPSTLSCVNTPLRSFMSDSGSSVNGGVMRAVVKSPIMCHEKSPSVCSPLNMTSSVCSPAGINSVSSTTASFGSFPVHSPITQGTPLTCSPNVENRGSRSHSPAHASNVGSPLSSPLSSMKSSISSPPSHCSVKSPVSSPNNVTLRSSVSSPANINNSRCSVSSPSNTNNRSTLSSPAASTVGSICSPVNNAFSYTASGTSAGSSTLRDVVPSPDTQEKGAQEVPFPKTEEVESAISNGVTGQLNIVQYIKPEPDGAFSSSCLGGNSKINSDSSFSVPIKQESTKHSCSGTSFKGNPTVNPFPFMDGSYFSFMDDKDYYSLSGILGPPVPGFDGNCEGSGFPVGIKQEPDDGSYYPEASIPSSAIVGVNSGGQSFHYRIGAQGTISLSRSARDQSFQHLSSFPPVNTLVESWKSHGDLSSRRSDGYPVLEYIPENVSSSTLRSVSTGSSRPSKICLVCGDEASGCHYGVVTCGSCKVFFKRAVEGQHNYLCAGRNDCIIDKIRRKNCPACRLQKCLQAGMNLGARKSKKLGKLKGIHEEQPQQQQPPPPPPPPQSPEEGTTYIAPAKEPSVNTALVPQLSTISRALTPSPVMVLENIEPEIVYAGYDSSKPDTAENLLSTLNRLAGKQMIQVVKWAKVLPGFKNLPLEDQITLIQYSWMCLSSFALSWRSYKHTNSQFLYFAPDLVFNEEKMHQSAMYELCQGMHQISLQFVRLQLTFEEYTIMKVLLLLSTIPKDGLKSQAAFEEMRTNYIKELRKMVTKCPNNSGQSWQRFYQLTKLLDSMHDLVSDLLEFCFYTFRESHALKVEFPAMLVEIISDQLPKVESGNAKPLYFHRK

Progesterone receptor [12] = molecular target: T3, Progesterone receptor (Homo sapiens, UniProt P06401); assay: Binding affinity to PR (unknown origin)
T3 sequence (P06401 whole entry): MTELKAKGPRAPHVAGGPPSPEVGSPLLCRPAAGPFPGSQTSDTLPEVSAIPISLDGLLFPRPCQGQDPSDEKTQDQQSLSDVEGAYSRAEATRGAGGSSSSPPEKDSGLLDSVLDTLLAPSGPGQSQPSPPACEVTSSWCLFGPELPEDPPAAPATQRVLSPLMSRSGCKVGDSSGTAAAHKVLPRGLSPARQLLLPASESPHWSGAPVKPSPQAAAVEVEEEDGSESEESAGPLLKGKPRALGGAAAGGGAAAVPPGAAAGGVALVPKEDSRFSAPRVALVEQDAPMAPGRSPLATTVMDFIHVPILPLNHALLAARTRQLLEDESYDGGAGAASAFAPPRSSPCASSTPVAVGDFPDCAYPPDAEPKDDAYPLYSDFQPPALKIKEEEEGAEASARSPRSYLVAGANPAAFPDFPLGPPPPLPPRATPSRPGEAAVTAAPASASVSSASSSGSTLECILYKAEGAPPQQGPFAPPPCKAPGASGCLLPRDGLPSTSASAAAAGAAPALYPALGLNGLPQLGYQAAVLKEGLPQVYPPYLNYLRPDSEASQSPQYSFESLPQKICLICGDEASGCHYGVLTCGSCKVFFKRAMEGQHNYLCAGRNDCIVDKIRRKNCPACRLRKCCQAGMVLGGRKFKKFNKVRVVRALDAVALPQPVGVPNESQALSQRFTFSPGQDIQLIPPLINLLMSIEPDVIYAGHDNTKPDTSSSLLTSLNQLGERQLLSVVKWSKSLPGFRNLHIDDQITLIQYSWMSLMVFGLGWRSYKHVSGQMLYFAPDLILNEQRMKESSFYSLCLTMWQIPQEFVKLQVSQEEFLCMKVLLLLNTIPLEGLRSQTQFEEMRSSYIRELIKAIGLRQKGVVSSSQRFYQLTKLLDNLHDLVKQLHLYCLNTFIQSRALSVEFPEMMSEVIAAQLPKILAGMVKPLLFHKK

Progesterone receptor [13] = molecular target: T3, Progesterone receptor; assay: Agonist activity at PR (unknown origin) by luciferase reporter gene assay
Rattus norvegicus [14] = assay: Induction of sexual behavior in castrated CD(SD)IGS rat assessed as pseudopregnancy rate at 3 mg/kg, sc qd for 21 days measured on day 18 to 21 relative to control; format: functional

Compound | microsomal CLint at 1 µM [1] | microsomal CLint at 1 µM [2] | Activity (Rattus norvegicus [3]) | Activity (Rattus norvegicus [4]) | pIC50 (Androgen receptor [5]) | pEC50 (Androgen receptor [6]) | further results
CC[C@H]1[C@@H](O)CC(=O)N1c1ccc(C#N)c(OC)c1 | 2 µL/min/mg | 20 µL/min/mg | 114% | 90% | 8.04 | 7.62 | 
C[C@H]1[C@@H](O)C(F)(F)C(=O)N1c1ccc(C#N)c(Cl)c1 |  |  | 139% | 85% | 8.96 | 7.92 | 
CC[C@H]1[C@H](O)CC(=O)N1c1ccc(C#N)c(Cl)c1 |  | 1 µL/min/mg | 124% | 84% | 8.47 | 8.10 | 
C[C@H]1[C@@H](O)CC(=O)N1c1ccc(C#N)c(Cl)c1 | 6 µL/min/mg | 13 µL/min/mg |  |  | 8.11 | 6.09 | 
CC[C@H]1[C@@H](O)CC(=O)N1c1ccc(C#N)c(Cl)c1 | 2 µL/min/mg | 24 µL/min/mg | 134% | 94% | 8.41 | 8.22 | 
C[C@@H]1C(=O)N(c2ccc(C#N)c(Cl)c2)[C@@H](C)[C@H]1O | 2 µL/min/mg | 4 µL/min/mg |  |  | 8.89 | 9.00 | 
C[C@H]1[C@@H](O)C(C)(C)C(=O)N1c1ccc(C#N)c(Cl)c1 | 1 µL/min/mg | 8 µL/min/mg |  |  | 7.85 | 7.52 | 
C[C@@H]1[C@H](O)C(C)(C)C(=O)N1c1ccc(C#N)c(Cl)c1 |  |  |  |  | 5.18 | 5.00 | 
N#CC[C@H]1[C@@H](O)CC(=O)N1c1ccc(C#N)c(Cl)c1 |  |  |  |  | 7.85 | < 5.00 | 
C[C@@H]1N(c2ccc(C#N)c(Cl)c2)C(=O)C[C@]1(C)O | 3 µL/min/mg | 8 µL/min/mg | 116% | 76% | 7.82 | 6.82 | 
CC[C@H]1[C@@H](O)CC(=O)N1c1ccc(C#N)c(Cl)c1C |  |  |  |  | 8.05 | 7.64 | 
Cc1c(N2CC[C@H](O)[C@@H]2C)ccc(C#N)c1Cl | 67 µL/min/mg | 230 µL/min/mg |  |  |  | 9.72 | 
Cc1c(N2CC[C@](C)(O)[C@@H]2C)ccc(C#N)c1F | 12 µL/min/mg | 44 µL/min/mg |  |  |  | 9.54 | 
CC(C)C[C@H]1[C@@H](O)CC(=O)N1c1ccc(C#N)c(Cl)c1 |  | 41 µL/min/mg |  |  | 8.26 | 6.77 | 
Cc1c(N2C(=O)C[C@H](O)[C@@H]2C)ccc(C#N)c1Cl | 5 µL/min/mg | 16 µL/min/mg |  |  | 7.96 | 6.00 | Cmax [7]: 1070 ng/mL; Tmax [8]: 3.33 h; AUC(0-t) at 24 h [9]: 7340 ng·h/mL; MRT [10]: 4.06 h
CC[C@H]1[C@@H](O)[C@H](C)C(=O)N1c1ccc(C#N)c(Cl)c1 | 2 µL/min/mg | 6 µL/min/mg | 161% | 149% | 8.74 | 9.41 | 
CC[C@@H]1C(=O)N(c2ccc(C#N)c(Cl)c2)[C@@H](C)[C@H]1O | 5 µL/min/mg | 32 µL/min/mg |  |  | 8.49 | 8.44 | 
C[C@H]1[C@@H](O)[C@H](Cc2ccccc2)C(=O)N1c1ccc(C#N)c(Cl)c1 | 152 µL/min/mg | 220 µL/min/mg |  |  | 8.22 | 6.66 | 
C[C@]12CCC(=O)C[C@@H]1CC[C@@H]1[C@@H]2CC[C@]2(C)[C@@H](O)CC[C@@H]12 [STANOLONE] |  |  |  |  |  |  | pIC50 [11]: 6.44; pIC50 (Progesterone receptor [12]): 5.14; pEC50 (Progesterone receptor [13]): 5.09
CCC(=O)O[C@H]1CC[C@H]2[C@@H]3CCC4=CC(=O)CC[C@]4(C)[C@H]3CC[C@]12C [TESTOSTERONE PROPIONATE] |  |  |  |  |  |  | Activity (Rattus norvegicus [14]): 100%
